Assay [1] has as its system Rattus norvegicus. As to the kind of experiment: Hypocholesterolemic activity expressed as percent change in total cholesterol in acute cholesterol fed rats (APCC) at dose 30 mg/kg. The class given is functional.
The test system of assay [2] is Rattus norvegicus. Briefly: Hypocholesterolemic activity expressed as percent change in total cholesterol in chronic cholesterol fed rats (CPCC) at dose 30 mg/kg. The class given is functional.
For assay [3], the target named is T1, Sterol O-acyltransferase 1 (Rattus norvegicus, UniProt O70536).
T1 sequence (O70536 whole entry): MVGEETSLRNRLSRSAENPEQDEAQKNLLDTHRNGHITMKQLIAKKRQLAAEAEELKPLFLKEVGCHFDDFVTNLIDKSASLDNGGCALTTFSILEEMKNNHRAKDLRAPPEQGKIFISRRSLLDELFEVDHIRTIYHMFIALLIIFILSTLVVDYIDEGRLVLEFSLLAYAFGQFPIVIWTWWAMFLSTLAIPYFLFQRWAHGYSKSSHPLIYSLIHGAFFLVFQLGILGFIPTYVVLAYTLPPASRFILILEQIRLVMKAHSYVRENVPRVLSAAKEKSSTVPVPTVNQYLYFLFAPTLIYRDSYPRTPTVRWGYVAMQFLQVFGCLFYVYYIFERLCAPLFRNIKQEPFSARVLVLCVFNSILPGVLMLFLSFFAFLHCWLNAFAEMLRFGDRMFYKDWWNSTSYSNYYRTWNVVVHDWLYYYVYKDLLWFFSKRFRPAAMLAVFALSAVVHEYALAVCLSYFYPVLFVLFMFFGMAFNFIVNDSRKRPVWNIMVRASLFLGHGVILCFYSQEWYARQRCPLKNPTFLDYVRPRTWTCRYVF
As to the kind of experiment: Inhibition of Acyl-CoA: Cholesterol Acyltransferase (ACAT) in liver microsomes of cholesterol fed rats. Details: species or system Microsome. On the technique in general: Liver microsomes are vesicles of endoplasmic reticulum, rich in cytochrome P450 enzymes.

In assay [4] the test system is Rattus norvegicus. As to the kind of experiment: Hypocholesterolemic activity expressed as percent change in total cholesterol in acute cholesterol fed rats (APCC) at dose 3 mg/kg. The format is functional.
For assay [5], the system named is Rattus norvegicus. As to the kind of experiment: Hypocholesterolemic activity expressed as percent change in total cholesterol in chronic cholesterol fed rats (CPCC) at dose 3 mg/kg; NC means no change. The class given is functional, organism-based. Details: dose 3 mg/kg.
For assay [6], the system named is Rattus norvegicus. As to the kind of experiment: Hypocholesterolemic activity expressed as percent change in total cholesterol in chronic cholesterol fed rats (CPCC) at dose 3 mg/kg. The class given is functional.
Assay [7] deals with T2, Acyl-CoA:cholesterol acyltransferase (Oryctolagus cuniculus) (UniProt Q95214).
T2 sequence (whole entry): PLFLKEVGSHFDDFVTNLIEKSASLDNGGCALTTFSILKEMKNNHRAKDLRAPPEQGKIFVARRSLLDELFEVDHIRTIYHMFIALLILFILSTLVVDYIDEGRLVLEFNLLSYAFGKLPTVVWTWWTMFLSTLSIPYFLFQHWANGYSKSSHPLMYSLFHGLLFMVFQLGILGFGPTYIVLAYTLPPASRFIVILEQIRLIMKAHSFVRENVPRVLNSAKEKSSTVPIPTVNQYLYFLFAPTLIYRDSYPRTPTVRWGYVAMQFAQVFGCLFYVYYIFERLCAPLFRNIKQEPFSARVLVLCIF
Briefly: (§1) Compound at 5 uM concentration was tested in vitro for inhibition of Acyl-CoA: Cholesterol Acyltransferase (ACAT) in intestinal microsomes of cholesterol fed rabbits. The conditions noted are these: Intestine.

The target of assay [8] is T3, O-acyltransferase (Oryctolagus cuniculus, UniProt G1SFD9). Briefly: Inhibition of Acyl-CoA: Cholesterol Acyltransferase (ACAT) in intestinal microsomes of cholesterol fed rabbits. Set-up: species or system Intestine.
In assay [9] the target is T4, Sterol O-acyltransferase 1 (Rattus norvegicus) (UniProt O70536).
T4 sequence (whole entry): T1 sequence (O70536 whole entry)
Briefly: (§2) Compound at 5 uM concentration was tested in vitro for inhibition of Acyl-CoA: Cholesterol Acyltransferase (ACAT) in liver microsomes of cholesterol fed rats. The following applies: Microsome.

Assay [10] addresses T4, Sterol O-acyltransferase 1 (Rattus norvegicus). As to the kind of experiment: Compound at 10 uM concentration was tested in vitro for inhibition of Acyl-CoA: Cholesterol Acyltransferase (ACAT) in liver microsomes of cholesterol fed rats. The conditions noted are these: Microsome.
For assay [11], the target named is T1, Sterol O-acyltransferase 1. The assay is described as §2. Set-up: species or system Microsome.
Assay [12] concerns Rattus norvegicus. As to the kind of experiment: Hypocholesterolemic activity expressed as percent change in total cholesterol in acute cholesterol fed rats (APCC) at dose 30 mg/kg; NC means no change. Set-up: dose 30 mg/kg. The class given is functional, organism-based.
The target of assay [13] is T3, O-acyltransferase. The description is as §1. Set-up: species or system Intestine.

SMILES strings stand for the structures. Activity calls are given as the source filed them. No cut-off for these calls is given here.

As a reminder, the IC50 is the point on the concentration scale where inhibition reaches its midpoint. Higher therefore signals weaker potency. In general, inhibition refers to the percentage by which the read-out fell short of the control.

T3 sequence (G1SFD9 1-524): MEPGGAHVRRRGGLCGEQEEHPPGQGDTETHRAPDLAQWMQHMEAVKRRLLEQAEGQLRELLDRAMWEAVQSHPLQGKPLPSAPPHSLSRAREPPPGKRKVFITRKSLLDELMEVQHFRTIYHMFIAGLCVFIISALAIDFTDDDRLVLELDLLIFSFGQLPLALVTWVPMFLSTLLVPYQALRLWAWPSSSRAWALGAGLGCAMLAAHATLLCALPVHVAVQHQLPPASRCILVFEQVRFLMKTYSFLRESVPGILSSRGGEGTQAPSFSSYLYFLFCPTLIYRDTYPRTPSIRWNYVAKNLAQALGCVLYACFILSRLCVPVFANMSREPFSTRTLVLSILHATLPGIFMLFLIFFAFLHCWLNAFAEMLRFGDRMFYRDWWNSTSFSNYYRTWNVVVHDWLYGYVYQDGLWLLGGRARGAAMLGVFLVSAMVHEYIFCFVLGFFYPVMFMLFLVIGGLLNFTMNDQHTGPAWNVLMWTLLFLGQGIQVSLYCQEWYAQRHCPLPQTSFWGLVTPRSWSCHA

Turning to `CCCCCCCCCCCCCC(c1ccccc1)S(=O)(=O)NC(=O)Nc1c(C(C)C)cccc1C(C)C` (stereo not given), the Change in the assay with Rattus norvegicus [1] is -72%; in the assay with Rattus norvegicus [2], -62%; in the assay with Rattus norvegicus [4], -69%. The midpoint of inhibition in [3], the IC50, lay at 2300 nM. Besides, the Change result in the assay on Rattus norvegicus [5] was “inactive”.
For `CCCCCCCCCCCCCC(C)(C)S(=O)(=O)NC(=O)Nc1c(OC)cc(OC)cc1OC`, the Change was -76% in the assay with Rattus norvegicus [1], -13% in the assay with Rattus norvegicus [6] and -18% in the assay with Rattus norvegicus [4]. This molecule came in with a concentration for half-maximal inhibition (IC50) in assay [3] of 8100 nM.
As for `CCCCCCCCCCCCCCS(=O)(=O)N(C)C(=O)Nc1c(C(C)C)cccc1C(C)C`, the Change with Rattus norvegicus [1] is -48%; in the assay with Rattus norvegicus [4], -20%. Moreover, the IC50 in assay [3] is 8830 nM. In assay [7], this molecule displayed an inhibition of 34%.
Consider `CCCCCCCCCCCCCC(C)(C)S(=O)(=O)NC(=O)Nc1c(C(C)C)cccc1C(C)C`, for which the Change is reported as -52% in the assay with Rattus norvegicus [1], -26% in the assay on Rattus norvegicus [6], -59% with Rattus norvegicus [2] and -55% with Rattus norvegicus [4]. Also, in assay [3], the IC50 was found to be 682 nM.
As to `CCCCCCCCCCCCCS(=O)(=O)NC(=O)Nc1c(C(C)C)cccc1C(C)C`, the Change was -62% in the assay on Rattus norvegicus [1], -69% in the assay with Rattus norvegicus [2] and -42% with Rattus norvegicus [4]. For the same molecule, the IC50 against O-acyltransferase [8] was found to be 1200 nM; in assay [3], 2000 nM.
For the molecule `CCCCCCCCCCCCS(=O)(=O)NC(=O)Nc1c(C(C)C)cccc1C(C)C`, the Change is recorded as -63% in the assay with Rattus norvegicus [1], -35% in the assay with Rattus norvegicus [6], -53% with Rattus norvegicus [2] and -59% in the assay on Rattus norvegicus [4]. The IC50 was 2330 nM on O-acyltransferase [8] and 3300 nM in assay [3].
Turning to `CCCCCCCCCCCCCCS(=O)(=O)NC(=O)Nc1c(OC)cc(OC)cc1OC`, the Change with Rattus norvegicus [1] is given as -47%; in the assay with Rattus norvegicus [4], -31%. In [9], this molecule returned an inhibition of 40%.
With `CCCCCCCCCCCCCCCCC(C)S(=O)(=O)NC(=O)Nc1c(C(C)C)cccc1C(C)C` (stereo not given), the Change with Rattus norvegicus [1] is recorded as -76%; in the assay with Rattus norvegicus [2], -36%; with Rattus norvegicus [4], -58%. The IC50 in assay [3] is 1390 nM.
Take `CCCCCCCCCCCCCCCCS(=O)(=O)NC(=O)Nc1c(C(C)C)cccc1C(C)C`: the Change in the assay with Rattus norvegicus [1] is recorded as -64%; with Rattus norvegicus [2], -10%; with Rattus norvegicus [4], -58%. In addition, the IC50 at O-acyltransferase [8] was found to be 1350 nM; in assay [3], 1270 nM.
Regarding `CCCCCCCCCCCCS(=O)(=O)N(C)C(=O)Nc1c(C(C)C)cccc1C(C)C`, the results for the Change in the assay on Rattus norvegicus [1] and in the assay on Rattus norvegicus [4] were -49% and -18%, respectively. Further, the IC50 against O-acyltransferase [8] came to 86 nM; in [3] it was 675 nM.
For the molecule `CCCCCCCCCCCCCCCCC(C)S(=O)(=O)NC(=O)Nc1c(OC)cc(OC)cc1OC` (stereo not given), the Change is listed as -53% in the assay with Rattus norvegicus [1], -18% in the assay with Rattus norvegicus [2] and -12% in the assay on Rattus norvegicus [4]. The molecule further showed an IC50 in assay [3] of 85 nM.
Consider `CCCCCCCCCCCCCC(C)S(=O)(=O)NC(=O)Nc1c(C(C)C)cccc1C(C)C` (stereo not given), for which the Change with Rattus norvegicus [1] is recorded as -76%; in the assay with Rattus norvegicus [6], -26%; in the assay on Rattus norvegicus [2], -61%; with Rattus norvegicus [4], -61%. The molecule further displayed an IC50 in assay [3] of 830 nM.
Take `CCCCCCCCS(=O)(=O)NC(=O)Nc1c(C(C)C)cccc1C(C)C`: the values for the Change in the assay with Rattus norvegicus [1], with Rattus norvegicus [2] and in the assay with Rattus norvegicus [4] were -74%, -59% and -31%, respectively. This molecule came in with an IC50 in assay [3] of 22600 nM. The molecule further registered an inhibition in assay [7] of 24%.
Regarding `CCCCCCCCCCCCCCS(=O)(=O)NC(=O)Nc1ccc(F)cc1F`, the inhibition in assay [10] came out at 0%; in [7] it was 49%. Besides, in the assay on Rattus norvegicus [4], the Change is -14%.
For `CCCCCCCCCCCCCCS(=O)(=O)N(Cc1ccccc1)C(=O)Nc1c(C(C)C)cccc1C(C)C`, the figures for the IC50 (in assay [11]; on O-acyltransferase [8]) were 38000 nM and 520 nM, respectively. Also, in the assay on Rattus norvegicus [12], the Change entry was “inactive”.
Turning to `CC(C)c1cccc(C(C)C)c1OC(=O)[N-]S(=O)(=O)Oc1c(C(C)C)cccc1C(C)C.[Na+]`, the Change is given as -74% in the assay with Rattus norvegicus [1], -64% in the assay with Rattus norvegicus [6], -64% in the assay on Rattus norvegicus [2] and -59% in the assay with Rattus norvegicus [4].
Regarding `CCCCCCCCCCS(=O)(=O)NC(=O)Nc1c(C(C)C)cccc1C(C)C`, the Change with Rattus norvegicus [1] is reported as -52%; in the assay with Rattus norvegicus [2] it was -47%; in the assay with Rattus norvegicus [4], -40%. The IC50 worked out at 11100 nM on O-acyltransferase [8] and 13600 nM in assay [3].
`CCCCCCCCCCCCCCS(=O)(=O)NC(=O)Nc1c(C(C)C)cccc1C(C)C`: the Change with Rattus norvegicus [1] is reported as -56%; in the assay with Rattus norvegicus [6], -46%; in the assay on Rattus norvegicus [2], -58%; in the assay on Rattus norvegicus [4], -60%. Inhibition in [3] was half-maximal at 940 nM (IC50).
For the molecule `CCCCCCCCC(c1ccccc1)S(=O)(=O)NC(=O)Nc1c(C(C)C)cccc1C(C)C` (stereo not given), the 50% inhibitory concentration (IC50) amounted to 1100 nM on O-acyltransferase [13] and 9200 nM in assay [3]. Besides, the Change is given as -75% with Rattus norvegicus [1], -48% with Rattus norvegicus [6], -74% in the assay on Rattus norvegicus [2] and -62% with Rattus norvegicus [4].
Regarding `CCCCCCCCC(C)S(=O)(=O)NC(=O)Nc1c(C(C)C)cccc1C(C)C` (stereo not given), the Change in the assay with Rattus norvegicus [1] was -69%; in the assay on Rattus norvegicus [6], -46%; with Rattus norvegicus [2], -58%; in the assay with Rattus norvegicus [4], -32%. The IC50 in assay [3] turned out to be 1300 nM.

The record behind these values is ChEMBL document CHEMBL1128046, “Inhibitors of acyl-coa:cholesterol acyltransferase (ACAT). 15. sulfonylurea inhibitors with excellent hypocholesterolemic activity in vivo” (Bioorg Med Chem Lett, 1995).
